Data from patent US4416884A, “Piperazinylbenzoheterocyclic compounds” (Otsuka Pharmaceutical Co., Ltd., priority 1978, dated 1983).
Values after ≈ are worked out from the molar mass of the structure shown. Like-named read-outs stand apart in the source and are kept apart here.

Tests used:
[1] = tested on: Enterobacter cloacae; assay: antimicrobial activity, serial dilution method on agar plate; assay type: cell-based
In short: (§1)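 Test compounds were diluted serially into Heart Infusion agar plates. Each organism was adjusted to 1×10^8 cells/ml by optical density at 660 mμ, then also diluted to 1×10^6 cells/ml. Minimum inhibitory concentrations were recorded in mcg/ml.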

[2] = tested on: Hafnia alvei IFO 3731; assay: as above; assay type: cell-based
In short: as §1

[3] = tested on: Proteus vulgaris IID OX-19; assay: as above; assay type: cell-based; details: read-out: Minimum Inhibitory Concentration
In short: as §1

[4] = tested on: Bacillus subtilis PCI 219; assay: as above; assay type: cell-based
In short: as §1

[5] = tested on: Shigella Sonnei EW 33; assay: as above; assay type: cell-based; details: read-out: Minimum Inhibitory Concentration
In short: as §1

[6] = tested on: Pseudomonas maltophilia IFO 12692; assay: as above; assay type: cell-based; details: Stenotrophomonas maltophilia, IFO12692, read-out: Minimum Inhibitory Concentration
In short: as §1

[7] = tested on: Salmonella typhi 0-901 (NCTC 8393); assay: as above; assay type: cell-based; details: Salmonella enterica, read-out: Minimum Inhibitory Concentration
In short: as §1

[8] = tested on: Proteus morganii IID Kono; assay: as above; assay type: cell-based; details: Morganella morganii
In short: as §1

[9] = tested on: Escherichia Coli NIHJ JC-2 (IFO 12734); assay: as above; assay type: cell-based; details: Escherichia coli, read-out: Minimum Inhibitory Concentration
In short: as §1

[10] = tested on: Pseudomonas aeruginosa E-2; assay: as above; assay type: cell-based
In short: as §1

[11] = tested on: Streptococcus pneumoniae Type I; assay: as above; assay type: cell-based
In short: as §1

[12] = tested on: Pseudomonas putida IFO 13696; assay: as above; assay type: cell-based
In short: as §1

[13] = tested on: Proteus rettgeri NIH 96; assay: as above; assay type: cell-based; details: Providencia rettgeri
In short: as §1

[14] = tested on: Streptococcus pneumoniae Type III; assay: as above; assay type: cell-based
In short: as §1

[15] = tested on: Klebsiella pneumoniae ST-101; assay: as above; assay type: cell-based
In short: as §1

[16] = tested on: Streptococcus pyogenes IID S-23; assay: as above; assay type: cell-based
In short: as §1

[17] = tested on: Escherichia Coli NIHJ; assay: as above; assay type: cell-based
In short: as §1

[18] = tested on: Serattia marcescens IFO 12648; assay: as above; assay type: cell-based
In short: as §1

[19] = tested on: Yersinia enterocolitica 0-3; assay: as above; assay type: cell-based
In short: as §1

[20] = tested on: Klebsiella pneumoniae; assay: as above; assay type: cell-based
In short: as §1

[21] = tested on: Streptococcus pyogenes IID Cook; assay: as above; assay type: cell-based
In short: as §1

[22] = inactivation ratio by human serum protein; details: 3.1 mcg/ml, 37° C.
Procedure: A 1/15 mol/l phosphate buffer was added to powder of Moni-Trol 1 (dehydrated preparation of human serum, a product of Midori Juji Co., Ltd.) to prepare a composition having the same serum protein concentration as natural human serum and this preparation was labeled "100% human serum", an aliquot of the "100% human serum" preparation was mixed with the same volume of the above buffer to prepare "50% human serum" and another aliquot was mixed with 4 times as much as its volume of the buffer to prepare "20% human serum".

[23] = read-out: Minimum Inhibitory Concentration, inoculum 1 × 10^6 cells/ml
[24] = read-out: Minimum Inhibitory Concentration, inoculum 1 × 10^8 cells/ml

Question: With `CC1CCc2c(N3CCNCC3)ccc3c(=O)c(C(=O)O)cn1c23` (stereo not shown) [A] as the compound, how does the MIC [1, 23] read?
Answer: The MIC was 0.8 µg/mL (≈ 2.44 µM).

Question: And the MIC [1, 24]?
Answer: Its MIC is 0.8 µg/mL (≈ 2.44 µM).

Question: And the MIC ([2]; IFO3731, read-out: Minimum Inhibitory Concentration, inoculum 1 × 10^6 cells/ml)?
Answer: Its MIC is 3.1 µg/mL (≈ 9.47 µM).

Question: And the MIC ([2]; IFO3731, read-out: Minimum Inhibitory Concentration, inoculum 1 × 10^8 cells/ml)?
Answer: The MIC was 6.3 µg/mL (≈ 19.2 µM).

Question: And the MIC ([3]; IIDOX19, inoculum 1 × 10^6 cells/ml)?
Answer: The MIC was 0.8 µg/mL (≈ 2.44 µM).

Question: What about the MIC ([3]; IIDOX19, inoculum 1 × 10^8 cells/ml) of the same compound?
Answer: Its MIC is 1.6 µg/mL (≈ 4.89 µM).

Question: And the MIC ([4]; PCI219, read-out: Minimum Inhibitory Concentration, inoculum 1 × 10^6 cells/ml)?
Answer: Its MIC is 0.8 µg/mL (≈ 2.44 µM).

Question: What about the MIC ([4]; PCI219, read-out: Minimum Inhibitory Concentration, inoculum 1 × 10^8 cells/ml) of the same compound?
Answer: The MIC was 0.8 µg/mL (≈ 2.44 µM).

Question: What about the MIC ([5]; inoculum 1 × 10^6 cells/ml) of the same compound?
Answer: The MIC was 0.4 µg/mL (≈ 1.22 µM).

Question: What about the MIC ([5]; inoculum 1 × 10^8 cells/ml) of the same compound?
Answer: The MIC was 0.8 µg/mL (≈ 2.44 µM).

Question: What about the MIC [6] of the same compound?
Answer: The MIC was 12.5 µg/mL (≈ 38.2 µM).

Question: And the MIC ([7]; inoculum 1 × 10^6 cells/ml)?
Answer: Its MIC is 0.2 µg/mL (≈ 0.611 µM).

Question: What about the MIC ([7]; inoculum 1 × 10^8 cells/ml) of the same compound?
Answer: The MIC was 0.4 µg/mL (≈ 1.22 µM).

Question: And the MIC [8, 23]?
Answer: The MIC was 3.1 µg/mL (≈ 9.47 µM).

Question: What about the MIC [8, 24] of the same compound?
Answer: The MIC was 6.3 µg/mL (≈ 19.2 µM).

Question: What about the MIC [9] of the same compound?
Answer: Its MIC is 1.6 µg/mL (≈ 4.89 µM).

Question: What about the MIC ([10]; E2, read-out: Minimum Inhibitory Concentration, inoculum 1 × 10^6 cells/ml) of the same compound?
Answer: The MIC was 6.3 µg/mL (≈ 19.2 µM).

Question: What about the MIC ([10]; E2, read-out: Minimum Inhibitory Concentration, inoculum 1 × 10^8 cells/ml) of the same compound?
Answer: The MIC was 12.5 µg/mL (≈ 38.2 µM).

Question: What about the MIC [11, 23] of the same compound?
Answer: Its MIC is 3.1 µg/mL (≈ 9.47 µM).

Question: What about the MIC [11, 24] of the same compound?
Answer: The MIC was 12.5 µg/mL (≈ 38.2 µM).

Question: What about the MIC ([12]; IFO13696, read-out: Minimum Inhibitory Concentration, inoculum 1 × 10^6 cells/ml) of the same compound?
Answer: The MIC was 1.6 µg/mL (≈ 4.89 µM).

Question: And the MIC ([12]; IFO13696, read-out: Minimum Inhibitory Concentration, inoculum 1 × 10^8 cells/ml)?
Answer: The MIC was 3.1 µg/mL (≈ 9.47 µM).

Question: And the MIC ([13]; NIH96, read-out: Minimum Inhibitory Concentration, inoculum 1 × 10^6 cells/ml)?
Answer: The MIC was 0.4 µg/mL (≈ 1.22 µM).

Question: What about the MIC ([13]; NIH96, read-out: Minimum Inhibitory Concentration, inoculum 1 × 10^8 cells/ml) of the same compound?
Answer: The MIC was 0.4 µg/mL (≈ 1.22 µM).

Question: What about the MIC [14, 23] of the same compound?
Answer: Its MIC is 12.5 µg/mL (≈ 38.2 µM).

Question: What about the MIC [14, 24] of the same compound?
Answer: Its MIC is 25 µg/mL (≈ 76.4 µM).

Question: What about the MIC ([15]; ST101, read-out: Minimum Inhibitory Concentration, inoculum 1 × 10^6 cells/ml) of the same compound?
Answer: The MIC was 0.2 µg/mL (≈ 0.611 µM).

Question: What about the MIC ([15]; ST101, read-out: Minimum Inhibitory Concentration, inoculum 1 × 10^8 cells/ml) of the same compound?
Answer: The MIC was 0.4 µg/mL (≈ 1.22 µM).

Question: What about the MIC ([16]; IIDS23, read-out: Minimum Inhibitory Concentration, inoculum 1 × 10^6 cells/ml) of the same compound?
Answer: Its MIC is 12.5 µg/mL (≈ 38.2 µM).

Question: What about the MIC ([16]; IIDS23, read-out: Minimum Inhibitory Concentration, inoculum 1 × 10^8 cells/ml) of the same compound?
Answer: Its MIC is 25 µg/mL (≈ 76.4 µM).

Question: And the MIC [17, 23]?
Answer: The MIC was 0.4 µg/mL (≈ 1.22 µM).

Question: And the MIC [17, 24]?
Answer: Its MIC is 0.8 µg/mL (≈ 2.44 µM).

Question: And the MIC [18, 23]?
Answer: The MIC was 1.6 µg/mL (≈ 4.89 µM).

Question: What about the MIC [18, 24] of the same compound?
Answer: The MIC was 3.1 µg/mL (≈ 9.47 µM).

Question: What about the MIC ([19]; Yersinia enterocolitica, 03, read-out: Minimum Inhibitory Concentration, inoculum 1 × 10^6 cells/ml) of the same compound?
Answer: The MIC was 1.6 µg/mL (≈ 4.89 µM).

Question: And the MIC ([19]; Yersinia enterocolitica, 03, read-out: Minimum Inhibitory Concentration, inoculum 1 × 10^8 cells/ml)?
Answer: Its MIC is 3.1 µg/mL (≈ 9.47 µM).

Question: What about the MIC [20, 23] of the same compound?
Answer: The MIC was 1.6 µg/mL (≈ 4.89 µM).

Question: What about the MIC [20, 24] of the same compound?
Answer: The MIC was 1.6 µg/mL (≈ 4.89 µM).

Question: What about the MIC [21, 23] of the same compound?
Answer: Its MIC is 12.5 µg/mL (≈ 38.2 µM).

Question: What about the MIC [21, 24] of the same compound?
Answer: Its MIC is 25 µg/mL (≈ 76.4 µM).

Question: And the fraction unbound at 2 h ([22]; 10% human serum)?
Answer: The fraction unbound at 2 h was 0.918.

Question: And the fraction unbound at 2 h ([22]; 20% human serum)?
Answer: The fraction unbound at 2 h was 1.

Question: And the fraction unbound at 2 h ([22]; 100% human serum)?
Answer: The fraction unbound at 2 h was 1.
